Read-outs that look alike come from different tables or passages of the source.
Test: Pharmacokinetics of a letrozole-containing intravaginal device in heifers (plasma letrozole by LCMS/MS)
Assay type: in vivo, cattle (Hereford-cross beef heifers)
Conditions: for half-life: read-out: Half-life (T1/2) (converted); for Cmax: read-out: Maximal concentration (Cmax); for MRT: read-out: Mean residence time (MRT); for clearance: read-out: Systemic clearance (ClS) (converted); for Vd/F: read-out: Volume of distribution (Vz/f)
Protocol: Intravaginal devices were prepared using a Cue-Mate spine (Bioniche Animal Health, Bellville, ON, Canada) assembled with two blank (progesterone-free) silicone pods that were coated with a gel-based vehicle containing letrozole or vehicle only (control). The vehicle contained the following (all ingredients % w/w): letrozole 10%, gelatin 20% (Gelatin type B, Fisher Scientific, Pittsburgh, PA, USA), polymer 65% (prepared by mixing distilled water 68%, Poloxamer 188 12% and Poloxamer 407 20%, both from Spectrum Chemical, New Brunswick, NJ, USA) and distilled water 5%.
Blood samples were collected by coccygeal venipuncture into 10 mL heparinized vacuum tubes (Becton Dickinson Vacutainer Systems, Franklin Lakes, NJ, USA). Samples were collected daily from pre-treatment follicular wave emergence (Day 0) to 12 days after the subsequent ovulation. In a subset of letrozole-treated animals (n=4), frequent blood samples were collected using an in-dwelling jugular catheter, as previously described, at the time of catheter placement and 0, 10, 20, 30 min, 1, 1.5, 2, 3, 4, 6, 8, 12 and 24 h after treatment for measurement of plasma letrozole concentration. Blood samples were centrifuged at 1500 × g for 20 min and plasma was separated and stored in plastic tubes at -20°C.
Plasma letrozole concentrations were quantified using liquid chromatography tandem mass spectrometry (LCMS/MS), as described. Briefly, letrozole was extracted from […] with […] of 0.1M ammonium acetate followed by the addition of 5 mL methyl t-butyl ether (MTBE) and vortexed for 15 s. The organic layer was removed and transferred to a fresh 15 mL plastic tube and dried by gentle nitrogen gas flow. The dried extract was reconstituted in 1 mL of 100% ethanol. Separation was accomplished by HPLC (Agilent 1200; Agilent, Santa Clara, CA, USA) fitted with an analytical column (50 × 2.1 mm, […] particle size; Betasil C18; Thermo Scientific, Waltham, MA, USA) operated at 35°C. Mass spectra were collected using a tandem mass spectrometer (SCIEX 3000; Applied Bioscience, Foster City, CA, USA) fitted with an electrospray ionisation source, operated in the negative ionisation mode. Quantification was performed using Analyst 1.4.1 software provided by SCIEX (Applied Bioscience). The minimum and maximum values along the standard curve were 0.25 and 500 ng/mL, respectively. The limit of quantification used in this method was 0.25 ng/mL and the mean recovery was 70%.
The following pharmacokinetic parameters were determined: Cmax (maximum observed plasma concentration of letrozole), tmax (time to reach Cmax), t1/2 (terminal elimination half-life), AUC (area under the plasma letrozole concentration-time curve from zero to infinity calculated as AUCtlast). The concentration of letrozole in plasma as a function of time (C–t) data for each heifer was analyzed by non-compartmental techniques using a computer modeling program (WinNonLin Standard Edition Version 2.1, Pharsight Corporation, Mountain View, CA, USA). Peak letrozole concentration in plasma (Cmax) and time to peak letrozole concentration (tmax) were determined using observed values. The apparent terminal rate constant (λ) was determined by linear regression of the last 6–8 points on the terminal phase of the logarithmic plasma concentration vs time curve. The area under the C–t curve until the final plasma sample (AUClast) was determined using the linear trapezoidal rule. The total area under the curve extrapolated to infinity (AUC0-∞) was calculated by adding the Clast obs/λ + AUClast. The terminal half-life (T1/2λ) was calculated as ln2 ⁄λ. The mean residence time (MRT) was calculated as the area under the moment curve extrapolated to infinity (AUMC0-∞) ⁄AUC0-∞. Systemic clearance (ClS) was determined using the dose divided by AUC0-inf. The apparent volume of distribution (Vλ/f) was calculated by clearance divided by λ. […]

[1] = Mean of 4 heifers, intravaginal device 1 g letrozole
[2] = female, Hereford-cross, bovine, plasma, 1 g, Heifer 1, intravaginal device 1 g letrozole
[3] = female, Hereford-cross, bovine, plasma, 1 g, Heifer 2, intravaginal device 1 g letrozole
[4] = female, Hereford-cross, bovine, plasma, 1 g, Heifer 3, intravaginal device 1 g letrozole
[5] = female, Hereford-cross, bovine, plasma, 1 g, Heifer 4, intravaginal device 1 g letrozole
[6] = female, Hereford-cross, bovine, plasma, 1 g, Mean of 4 heifers, intravaginal device 1 g letrozole

N#Cc1ccc(C(c2ccc(C#N)cc2)n2cncn2)cc1 [Letrozole]
Area under the curve (AUClast) (Heifer 1, intravaginal device 1 g letrozole): 3538.1 hours x ng/mL
Area under the curve (AUClast) (Heifer 2, intravaginal device 1 g letrozole): 2697.7 hours x ng/mL
Area under the curve (AUClast) (Heifer 3, intravaginal device 1 g letrozole): 2583.1 hours x ng/mL
Area under the curve (AUClast) (Heifer 4, intravaginal device 1 g letrozole): 1698.0 hours x ng/mL
Area under the curve (AUClast) [1]: 2629.2 hours x ng/mL
Half-life (T1/2) [1]: 33.3 h
half-life [2]: 35.1 h
Cmax [2]: 0.0324 µg/mL
MRT [2]: 71.5 h
clearance [2]: 0.1 L/h/kg
Vd/F [2]: 6.2 L/kg
half-life [3]: 20.4 h
Cmax [3]: 0.0353 µg/mL
MRT [3]: 56.2 h
clearance [3]: 0.2 L/h/kg
Vd/F [3]: 4.9 L/kg
half-life [4]: 41.9 h
Cmax [4]: 0.0273 µg/mL
MRT [4]: 65.5 h
clearance [4]: 0.2 L/h/kg
Vd/F [4]: 9.9 L/kg
half-life [5]: 35.7 h
Cmax [5]: 0.0317 µg/mL
MRT [5]: 48.7 h
clearance [5]: 0.3 L/h/kg
Vd/F [5]: 13.2 L/kg
half-life [6]: 33 h
Cmax [6]: 0.0317 µg/mL
MRT [6]: 60.5 h
clearance [6]: 0.2 L/h/kg
Vd/F [6]: 8.5 L/kg
bioavailability (female, Hereford-cross, bovine, plasma, other: intravaginal device, 1 g, Mean, intravaginal device AUClast versus single iv injection AUClast (unpublished data), corrected by dose): 16%
Tmax (female, Hereford-cross, bovine, plasma, other: intravaginal device, 1 g, post-device insertion, n=4, read-out: Time of maximal concentration in plasma (tmax)): 24 h
Duration of letrozole release from the intravaginal device (post-insertion, inferred from plasma letrozole concentration profile): 24 h

From PMC3853024, “Aromatase inhibitor treatment with an intravaginal device and its effect on pre-ovulatory ovarian follicles in a bovine model” (Reproductive Biology and Endocrinology : RB&E, 2013)
